Experiments:
[1] = system: medium spiny neurons (MSNs) expressing mHTTex1; assay: Acutely transfected rat brain slice culture assay; format: cell-based
Protocol: Coronal brain slices (250 μm thick) containing both cortex and striatum were prepared from CD Sprague-Dawley rat pups at postnatal day 10 and placed into interface culture as previously described (Reinhart et al., 2011). A biolistic device (Helios Gene Gun; Bio-Rad) was then used to co-transfect the brain slices with YFP visual reporter and a 90 amino acid mutant huntingtin plasmid containing human htt exon-1 harboring a 73 CAG repeat to induce neurodegeneration of medium spiny neurons (MSNs). mHTTex1 expression induced progressive neurodegeneration of medium spiny neurons (MSNs) compared to controls over a period of 4 days.
MIND4 was added to the culture wells at the time of slice preparation and transfection to a final DMSO concentration of 0.1%; this concentration of DMSO was also added to all control wells. The positive control used for these experiments was the pan-caspase inhibitor Boc-D-FMK at 100 μM (Varna et al., 2007). YFP co-transfected MSNs were identified 4 days after incubation by their location within the striatum and by their characteristic dendritic arborization as previously described (Crittenden et al., 2010; Reinhart et al., 2011). […] Ordinate axis expresses the mean numbers of healthy YFP-positive MSNs per striatal region in each brain slice. […]

[2] = system: α-tubulin K40 and histone H3 acetylation; assay: Acetylation of SIRT2 substrates in wild type primary cortical neurons; format: cell-based, mouse
Protocol: To assess protein levels, cell extracts were prepared from cells washed with PBS and lysed with buffer containing 2% SDS, Complete EDTA-free Protease Inhibitor Cocktail (Roche) and 1 mM phenylmethylsulfonyl fluoride. To prepare brain extracts for analysis, frozen mouse cortical tissues were homogenized in PBS containing protease inhibitors with an Kontes Pellet Pestle (Kimble/Kontes). They were later sonicated and lysed overnight at 4° C. in 2× volume of lysis buffer containing 2% SDS and protease inhibitors. Protein concentrations in ST14A cell extracts and homogenized cortical tissues were evaluated using a BCA analysis kit and normalized. Samples were prepared in a SDS buffer containing DTT and separated on bis-acrylamide protein gels via electrophoresis and transferred onto a 0.2 μm PVDF membrane). Membranes were probed for NQO1 (Sigma N5288, 1:1,000), GCLM, (Abcam ab126704, 1:800), SIRT2 (Sigma S8447, 1:2,500), histone H3 (Cell Signaling 4499, 1:2,000), acetylated H3 (K56) (Millipore 04-1135, 1:500), TNFα (Abcam ab1793, 1:1,500), GADPH (Millipore MAB374, 1:10,000), actin (Sigma A2066, 1:1250), α-tubulin (Sigma T6074, 1:20,000), and acetylated α-tubulin (Sigma T6793, 1:2,500) overnight in 5% milk in PBST at 4° C. on a rocker. Membranes were thrice washed in PBST for 15 min on a shaker and incubated in either an anti-rabbit-HRP (Bio-Rad 170-5046, 1:10,000) or anti-mouse-HRP (Sigma A3682, 1:4,000) secondary solution as appropriate in 3% milk in PBST for 1 hr at room temperature on a rocker. After four washes of 15 min in PBST on a shaker, blots were visualized using SuperSignal West Pico Chemiluminescent Substrate (Pierce 34080) or SuperSignal West Dura Extended Duration Substrate (Thermo 34075) and exposed on Scientific Imaging Film (Kodak 864 6770).
Based upon the robust neuroprotection observed in HD model systems expressing both mutant HTT fragments and full-length mutant HTT, verification of the bioactivity of MIND4 as SIRT2 inhibitor in primary neurons was sought. […]

O=[N+]([O-])c1ccc(Sc2nnc(COc3ccccc3)n2-c2ccccc2)c2ncccc12 [MIND4, 5-nitro-8-{[5-(phenoxymethyl)-4-phenyl-4H-1,2,4-triazol-3-yl]thio}quinoline]
Neuroprotection relative to Boc-D-FMK at 100 μM ([1]; 10 μM): comparable to the efficacy of a reference compound
Protection against mHTTex1-induced neurodegeneration of MSNs ([1]; concentration-dependent, 4 days): significantly protected against mHTTex1-induced neurodegeneration
Acetylation of histone 3 K56 and K27 ([2]; primary neurons, 6 hr): increased acetylation of histone 3 K56 and K27
Acetylation of α-tubulin and Histone 3 K56 ([2]; wild type primary cortical neurons (DIV11), 6 hours): only subtle increases of acetylation
